Read-outs that look alike come from different tables or passages of the source.
Key:
[1] = target: T1, hAT1R (Homo sapiens, UniProt P30556); type: binding; conditions: read-out: % Inhibition of hAT1R at 10 μM
T1 sequence (P30556 1-359): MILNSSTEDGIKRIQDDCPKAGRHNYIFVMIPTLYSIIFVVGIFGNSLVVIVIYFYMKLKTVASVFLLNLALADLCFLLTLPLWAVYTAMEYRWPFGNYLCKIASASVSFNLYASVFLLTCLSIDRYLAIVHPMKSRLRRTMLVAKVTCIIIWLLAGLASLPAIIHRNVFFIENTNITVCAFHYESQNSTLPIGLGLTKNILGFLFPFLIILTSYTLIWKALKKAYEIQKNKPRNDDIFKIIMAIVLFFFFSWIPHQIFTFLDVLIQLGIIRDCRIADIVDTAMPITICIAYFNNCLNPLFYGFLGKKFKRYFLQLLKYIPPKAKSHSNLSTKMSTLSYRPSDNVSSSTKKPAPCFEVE

[2] = target: T2, hAT2R (Homo sapiens, UniProt P50052); type: binding
T2 sequence (P50052 1-363): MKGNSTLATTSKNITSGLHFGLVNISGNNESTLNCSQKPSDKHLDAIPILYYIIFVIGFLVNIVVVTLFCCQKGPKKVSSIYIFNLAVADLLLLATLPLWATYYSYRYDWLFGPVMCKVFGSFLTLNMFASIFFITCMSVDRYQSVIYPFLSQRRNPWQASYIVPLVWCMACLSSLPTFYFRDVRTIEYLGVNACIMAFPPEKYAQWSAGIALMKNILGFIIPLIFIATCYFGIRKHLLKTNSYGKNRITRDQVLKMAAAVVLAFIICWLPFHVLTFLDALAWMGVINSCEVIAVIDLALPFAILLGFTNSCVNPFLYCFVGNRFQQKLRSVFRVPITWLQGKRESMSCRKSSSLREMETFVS

[3] = target: T1, hAT1R; assay: Assay 2: whole cell competition binding assay, HEK293 cells expressing AT1R
[4] = target: T2, hAT2R; assay: Assay 2: whole cell competition binding assay, HEK293 cells expressing AT2R

Compound	inhibition at 10 µM [1] [%]	Ki [2] [nM]	also measured
CCCCOC(=O)NS(=O)(=O)c1sc(CC(C)C)cc1-c1ccc(OC(F)(F)F)c(Cn2ccnc2)c1 [Compound 47]	1.8	–	–
CCCCOC(=O)NS(=O)(=O)c1sc(CC(C)C)cc1-c1cccc2c1CN(C(C)=O)C2 [Compound 83]	15	> 1500	IC50 [2]: > 3000 nM
CCCCOC(=O)NS(=O)(=O)c1sc(CC(C)C)cc1-c1ccc2c(c1)CN(C(C)=O)C2 [Compound 85]	7.5	360	–
CCCCOC(=O)NS(=O)(=O)c1sc(CC(C)C)cc1-c1ccc2c(c1)CCN(C(C)=O)C2 [Compound 86, Butyl ((3‐(2‐acetyl‐1,2,3,4‐tetrahydroisoquinolin‐6‐yl)‐5‐isobutylthiophen‐2‐yl)sulfonyl)carbamate]	34	56	improvement of hAT2R affinity compared to C38 ([2]; versus C38): 5 fold; improvement of hAT2R affinity compared to amides C93 and C97 ([2]; versus C93 and C97): 2 fold; IC50 [3]: > 10000 nM; IC50 [4]: 818 nM
CCCCOC(=O)NS(=O)(=O)c1sc(CC(C)C)cc1-c1ccc2c(c1)CN(C(C)=O)CC2 [Compound 87]	45	270	–
CCOC(=O)NS(=O)(=O)c1sc(CC(C)C)cc1-c1ccc2c(c1)CN(C(C)=O)C2 [Compound 88]	7.7	870	–
CCOC(=O)NS(=O)(=O)c1sc(CC(C)C)cc1-c1ccc2c(c1)CN(C(=O)OCC)C2 [Compound 89]	26	1300	drop in hAT2R affinity compared to compound 86 ([2]; versus 86): 20 fold; decrease in hAT2R affinity compared to methyl carbamate 92 ([2]; versus 92): ~5 fold
CCOC(=O)NS(=O)(=O)c1sc(CC(C)C)cc1-c1ccc2c(c1)CN(C)C(=O)C2 [Compound 94]	1.5	1300	–
